Experimental findings from ChEMBL document CHEMBL5724696, “Autophagy assay results for EUbOPEN Chemogenomics Library” (2024) are described below.

“And” between values parts separate entries of the source, which are not always exact repeats. Equal entries are not always repeated.

Format in all cases: functional, Homo sapiens
Assay [1] has as its system U2OS. In words: (§1) Here: values are normalized to the negative (DMSO; defined as 0% autophagy induction) and positive (250nM Torin1; mTOR inhibitor; defined as maximal inducer of autophagy = 100%) control compounds and represented as % of autophagy induction. […] The impact of autophagy induction on cells is complex and depends on the affected target. As such, the magnitude of a phenotype may not be equally mirrored in the %-value of autophagy induction and vice versa. The dynamics of the induction may indicate the mode of activation: e.g. activation via phosphorylation or a signaling cascade may occur fast, while activation via transcription factors may take considerably longer. […] Of note, treatment concentrations may be sub-optimal for specific compounds, leading to false negative annotations. The note with it: Culturing Media DMEM, 1 % Penicillin/Streptomycin, 10% Fetal bovin serum Add-On: No, Screening Media Control DMEM, Screening Media Samples DMEM.

The subject of assay [2] is U2OS. Described as §1. Conditions: Culturing Media DMEM, 1 % Penicillin/Streptomycin, 10% Fetal bovin serum Add-On: No, Screening Media Control DMEM, Screening Media Samples DMEM. The source holds these as a separate data set.
Assay [3] has as its system TERT-RPE1. The assay is described as §1. The note with it: Culturing Media DMEM/F12 (1:1), 1 % Penicillin/Streptomycin, 10% Fetal bovin serum Add-On: No, Screening Media Control DMEM/F12 (1:1), Screening Media Samples DMEM/F12 (1:1).
Where [4] appears, read: Compound Concentration 0.5 uM, Timepoint 12 hours.
Where [5] appears, read: Compound Concentration 0.5 uM, Timepoint 24 hours.
[6] abbreviates: Compound Concentration 0.5 uM, Timepoint 36 hours.
Setting [7] is: Compound Concentration 0.5 uM, Timepoint 60 hours.
[8] abbreviates: Compound Concentration 2 uM, Timepoint 12 hours.
The mark [9] stands for this setting: Compound Concentration 2 uM, Timepoint 24 hours.
The mark [10] stands for this setting: Compound Concentration 2 uM, Timepoint 36 hours.
Setting [11] is: Compound Concentration 2 uM, Timepoint 60 hours.
Where [12] appears, read: Compound Concentration 10 uM, Timepoint 12 hours.
The mark [13] stands for this setting: Compound Concentration 10 uM, Timepoint 24 hours.
Setting [14] is: Compound Concentration 10 uM, Timepoint 36 hours.
The mark [15] stands for this setting: Compound Concentration 10 uM, Timepoint 60 hours.
Where [16] appears, read: Compound Concentration 1 uM, Timepoint 12 hours.
Where [17] appears, read: Compound Concentration 1 uM, Timepoint 24 hours.
Setting [18] is: Compound Concentration 1 uM, Timepoint 36 hours.
The mark [19] stands for this setting: Compound Concentration 1 uM, Timepoint 60 hours.

Regarding `Cc1cc([C@@H](C)Nc2cccc(-c3cc(C)c(C(=O)N[C@@H](C)C(=O)O)c(C)c3)c2)ccc1Cl`, the autophagy induction was -1.358% in assay [1] (setting [4]); -0.4353% in assay [1] (setting [5]); -1.357% in assay [1] (setting [6]); 114.287% in assay [1] (setting [7]); 0.7384% in assay [1] (setting [8]); 3.004% in assay [1] (setting [9]). The autophagy induction is -0.1787% in assay [1] (setting [10]); 114.309% in assay [1] (setting [11]); 25.7636% in assay [1] (setting [12]); 8.275% in assay [1] (setting [13]); 1.804% in assay [1] (setting [14]); 114.446% in assay [1] (setting [15]). Besides, the autophagy induction in assay [2] (setting [4]) is recorded as -5.116%; in assay [2] (setting [5]), -3.567%; in assay [2] (setting [6]) it was -5.902%; in assay [2] (setting [7]), -1.838%; in assay [2] (setting [8]) it was -9.884%; in assay [2] (setting [9]) it was -6.925%. For the same compound, the autophagy induction is -1.645% in assay [2] (setting [10]); 5.389% in assay [2] (setting [11]); 8.557% in assay [2] (setting [12]); 0.1878% in assay [2] (setting [13]); -1.416% in assay [2] (setting [14]); -9.482% in assay [2] (setting [15]).

With `N[C@@H](Cc1cc(I)c(Oc2ccc(O)c(I)c2)c(I)c1)C(=O)O` [LIOTHYRONINE], the autophagy induction in assay [3] (setting [16]) is on record as 142.376%; in assay [3] (setting [17]) it was -11.4171%; in assay [3] (setting [18]) it was 8.172%; in assay [3] (setting [19]), -7.587%.

Regarding `O=C(O)CCCc1cc2cc(Cl)ccc2n1S(=O)(=O)c1ccc2ncsc2c1` [LANIFIBRANOR], the autophagy induction in assay [3] (setting [16]) was -95.7021%; in assay [3] (setting [17]), -0.9693%; in assay [3] (setting [18]), 14.6224%; in assay [3] (setting [19]) it was -20.9711%.

Take `CN(CCOc1ccc(CC2SC(=O)NC2=O)cc1)c1ccccn1` (stereo unspecified) [ROSIGLITAZONE]: the autophagy induction is given as -11.8893% in assay [3] (setting [16]), 0.9014% in assay [3] (setting [17]), 16.9691% in assay [3] (setting [18]) and -11.1596% in assay [3] (setting [19]).

With `CCOC(=O)C1Cc2ccccc2CN1C(=O)c1ccc(SC)s1` (stereo unspecified), the autophagy induction in assay [3] (setting [16]) is 141.578%; in assay [3] (setting [17]) it was -7.836%; in assay [3] (setting [18]), 8.933%; in assay [3] (setting [19]), -16.4137%.

For `CC[C@H]1[C@@H](O)[C@@H]2[C@H](CC[C@]3(C)[C@@H]([C@H](C)CCC(=O)O)CC[C@@H]23)[C@@]2(C)CC[C@@H](O)C[C@@H]12` [OBETICHOLIC ACID], the autophagy induction in assay [3] (setting [16]) was -8.507%; in assay [3] (setting [17]) it was -7.962%; in assay [3] (setting [18]), -3.9436%; in assay [3] (setting [19]) it was 2.71%.

With `CN1CCN(c2ccc(/C=C(\C#N)c3ccccc3Br)cc2)CC1.Cl.Cl`, the autophagy induction in assay [3] (setting [16]) was -7.74%; in assay [3] (setting [17]), -11.503%; in assay [3] (setting [18]), -8.5159%; in assay [3] (setting [19]), 1.827%.

As to `CCC(C)N(C)C(=O)c1cc2ccccc2c(-c2ccccc2Cl)n1` (stereo unspecified) [PK-11195], the autophagy induction in assay [3] (setting [12]) is reported as -6.134%; in assay [3] (setting [13]) it was 6.633%; in assay [3] (setting [14]), 20.4099%; in assay [3] (setting [15]), 30.5956%.

Take `O=C(O)c1ccc2cc(-c3ccc(O)c(C45CC6CC(CC(C6)C4)C5)c3)ccc2c1` [O-DEMETHYLATED ADAPALENE]: the autophagy induction in assay [3] (setting [16]) is listed as -7.665%; in assay [3] (setting [17]), -12.7242%; in assay [3] (setting [18]), -13.449%; in assay [3] (setting [19]) it was 12.49%.

`CC(C)C(=O)N1CCC(c2cn(C)c3ncc(NC(=O)c4cccc(C#N)c4)c(C(F)(F)F)c23)CC1`: the autophagy induction is -17.3669% in assay [3] (setting [16]), -7.8656% in assay [3] (setting [17]), 13.4062% in assay [3] (setting [18]) and -15.2604% in assay [3] (setting [19]).

For `Cn1cc(C(=O)O)c2ccc(N3CCC(OCc4c(-c5c(Cl)cccc5Cl)noc4C4CC4)CC3)cc21` [TERN-101], the autophagy induction is -2.759% in assay [3] (setting [16]), -6.198% in assay [3] (setting [17]), -6.322% in assay [3] (setting [18]) and 3.921% in assay [3] (setting [19]).

For `COc1cc(O)c(C(CC(=O)N2C[C@H](C)C[C@H](C)C2)c2ccc3c(c2)OCO3)c(OC)c1` (stereo partly specified), the autophagy induction in assay [3] (Compound Concentration 1 uM, Timepoint 12 hours, 12 h, 1 µM) is -12.9989% and -4.38%; in assay [3] (Compound Concentration 1 uM, Timepoint 24 hours, 24 h, 1 µM), -0.5632% and -3.782%; in assay [3] (Compound Concentration 1 uM, Timepoint 36 hours, 36 h, 1 µM), 12.4792% and 2.693%; in assay [3] (Compound Concentration 1 uM, Timepoint 60 hours, 60 h, 1 µM), -12.6071% and -5.875%.

With `OC(c1ccc(-c2ccc(CN3CCN(Cc4ccncc4)CC3)cc2)c(F)c1)(C(F)(F)F)C(F)(F)F`, the autophagy induction in assay [3] (setting [16]) was -2.122%; in assay [3] (setting [17]) it was -7.771%; in assay [3] (setting [18]) it was -2.839%; in assay [3] (setting [19]), 2.172%.

Regarding `C[C@H]1[C@H]2CC[C@H]3[C@@H]4CC=C5C[C@@H](N(C)C)CC[C@]5(C)[C@H]4CC[C@]23CN1C` [CONESSINE], the autophagy induction was -9.079% in assay [3] (setting [16]), -15.7832% in assay [3] (setting [17]), -16.9143% in assay [3] (setting [18]) and 14.1244% in assay [3] (setting [19]).
